Data taken from patent US20110112101A1, “TREATMENT FOR OCULAR-RELATED DISORDERS” (SANOFI-AVENTIS, priority 2009, published 2011).

System: laser induced plaque on the retina (model of wet AMD)
Experiment: laser induced model of macular degeneration in the rat
Assay type: in vivo
Conditions: for % Inhibition of Plaque: krypton laser injury of retina
Protocol: Several models of wet AMD are available in the rodent and rabbit. The pre-clinical efficacy of the compound of Formula I was assessed in a laser induced model of macular degeneration in the rat. In this model, injury is induced on the retina of the rat by a focused laser beam. This injury results in vascularization and inflammation, and the subsequent formation of a plaque on the retina that is associated with loss of vision. The ability of treatments with a compound of Formula Ito inhibit the size and thickness of such plaques serves as an indicator for the potential for the treatment of wet AMD patients. A krypton laser was used to irradiate the retina of a rat eye at 75 microns for 0.1 seconds, at each of 3-4 spots. From days 1 to 14, the irradiated rats were dosed twice a day with the compound of Formula I perorally (bid PO). Doses used were 3 mg/kg, 10 mg/kg, and 30 mg/kg body weight. An additional treatment group was given the vehicle for the oral compound, also bid PO administration. A positive control was used with 0.5 mg triamcinolone delivered to the intraocular subtendon. At 14 days after such irradiation, the rat was perfused with FITC-dextran (fluorescein isothiocyanate dextran) and the eyes were removed for evaluation. Evaluation was by fundoscopy and fluorescein angiography.

Structure (SMILES)	% Inhibition of Plaque (3 mg/kg bid PO days 1 to 14, evaluated at 14 days)	% Inhibition of Plaque (10 mg/kg bid PO days 1 to 14, evaluated at 14 days)	% Inhibition of Plaque (30 mg/kg bid PO days 1 to 14, evaluated at 14 days)	plaque thickness (laser induced model, 30 and 10 mg/kg bid PO)	results compared with positive control triamcinolone (laser induced model, 30 and 10 mg/kg bid PO versus 0.5 mg triamcinolone)	% Inhibition of Plaque (positive control 0.5 mg delivered to the intraocular subtendon, evaluated at 14 days)
CCc1c(-c2ccc(C(C)(C)O)cc2)[nH]c2nccnc12 [compound of Formula I, 2-[4-(7-Ethyl-5H-pyrrolo[2,3-b]pyrazin-6-yl)-phenyl]-propan-2-ol]	12%	36%	33%	significantly reduced plaque thickness	significantly better	
C[C@]12C=CC(=O)C=C1CC[C@H]1[C@@H]3C[C@@H](O)[C@](O)(C(=O)CO)[C@@]3(C)C[C@H](O)[C@@]12F [triamcinolone, reference compound]						26%
